Test results reported in patent US7189745B1, “Compounds” (SmithKline Beecham Corporation, priority 1999, dated 2007).

Legend:
activated tie 2 kinase = target: T1, activated tie 2 kinase (Homo sapiens, UniProt Q02763); assay: Fluorescence polarization for Tie 2 kinase; type: biochemical; settings: fluorescence polarization assay, 250 uM ATP, 10 uM peptide substrate
T1 construct: a baculovirus expressed GST fusion for Tie2 kinase domain was constructed and expressed using the commercial vector pAcG I (Pharmingen); GST; made in house
T1 sequence (Q02763 824-1096 limits assumed): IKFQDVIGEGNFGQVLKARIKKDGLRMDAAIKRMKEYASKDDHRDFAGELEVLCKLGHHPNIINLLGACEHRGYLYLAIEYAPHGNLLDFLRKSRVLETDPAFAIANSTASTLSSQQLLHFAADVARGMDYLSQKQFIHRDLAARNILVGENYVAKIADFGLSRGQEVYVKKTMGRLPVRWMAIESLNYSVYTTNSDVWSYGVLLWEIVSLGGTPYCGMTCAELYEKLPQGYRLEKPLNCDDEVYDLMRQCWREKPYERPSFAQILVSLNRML
Procedure: 2. Fluorescence Polarization for Tie 2 Kinase
2% DMSO (when screening compounds)
activated tie 2 kinase * see activation protocol below
For a 50 ul reaction add the following to each well of a 96-well black half-area plate (Costar, cat# 3694) • 1.5 ul of compound in 20% DMSO • 5 ul 9× kinase buffer. • 5 ul 2.5 mM ATP. • 5 ul 100 uM peptide substrate. • 25 ul PTK detection mix (Panvera, P-2652, 50 ml—UK distributor is Cambridge Bioscience) • 5 ul activated tie 2 kinase (protocol below) diluted in 1× buffer to initiate the reaction. • 7. Read polarization on an FP instrument cycling for 30–50 minutes in accordance with enzyme activity.
Activation of Tie 2 Kinase Protocol:
• 1. Incubate 5 uM tie 2 kinase in the 300 uM ATP and the buffering conditions described above. • 2. Allow to incubate at 27° C. for 2 hours. • 3. Add 2.5 ml reaction to a NAP-25 desalting column (Pharmacia Biotech cat. no. 17-0852-02) pre-equilibrated in 20 mM Tris-HCl pH 7.5, 100 mM NaCl2 to separate the ATP from the enzyme. • 4. Elute the enzyme with 5.0 ml 20 mM Tris-HCl pH 7.5, 100 mM NaCl2; the protein concentration should be 2.5 uM at this point. • 5. Aliquot out the enzyme and store at −80° C. as soon as possible. B. Measurement of Tie2 Receptor Signal Transduction—a Cellular Assay

Tie2 kinase = target: T2, Tie2 kinase (Homo sapiens, UniProt Q02763); assay: Tie2 kinase autophosphorylation flashplate assay; type: biochemical; settings: ATP final 30 uM
T2 construct: a baculovirus expressed GST fusion for Tie2 kinase domain was constructed and expressed using the commercial vector pAcG I (Pharmingen); GST; made in house
T2 sequence (Q02763 824-1096 limits assumed): as above
Description: A partial cDNA clone for the Tie2 receptor was used to make protein for Tie kinase studies. In order to generate the primary screening assay, a baculovirus expressed GST fusion for Tie2 kinase domain was constructed and expressed using the commercial vector pAcG I (Pharmingen).
This final construct was transfected into Baculovirus and soluble GST fusion products used in the screening assay.
Tie2 kinase activity assay: The Tie2 kinase activity assay was typically run in one of 2 ways described as follows. Minor variations in the assay give similar results.
1. Autophosphorylation flashplate assay
Kinase buffer (final 20 mM Tris-HCl, pH7.0, 100 mM NaCl, 12 mM MgCl2, 1 mM DTT).
Gamma ^33p-ATP (usually final amount of 0.5–1 uCi/well)
ATP (final 30 uM, or other desired concentration)
Flashplate (96-well, polystyrene microplate with plastic scintillator coated wells)
TopCount (microplate scintillation counter)
Turn on incubator shaker and adjust temperature to 30° C.
Add 20 ul of 3× kinase buffer per well to the Flashplate
Add 20 ul of protein per well except for background. Compounds added, typically in DMSO stocks, at 1–2 ul.
Add 20 ul mixture of gamma ^33p-ATP and cold ATP per well.
Cover with transparent polyester film.
Incubate at 30° C. for two hours in shaker, or desired time. […]
Read plate on TopCount or other counting instrument. Results are calculated as % inhibition […]

[1] = test system: angiogenesis (vascular density) in air pouch granuloma; assay: Murine air pouch granuloma model of inflammatory angiogenesis; type: in vivo, mice; settings: positive control
Description: Measurement of Angiogenesis In Vivo—Murine Air Pouch Granuloma Model:
The murine airpouch granuloma model of chronic inflammation (Kimura et al., 1985, J. Pharmacobio-Dyn., 8:393–400; Colville-Nash et al., 1995, J. Pharm. and Exp. Ther., 274:1463–1472) whose disclosure is incorporated herein by reference in its entirety, is characterized by inflammatory cell influx, fibrous tissue proliferation and intense angiogenesis. […] In addition, angiogenesis can be accurately quantitated by a vascular casting method.
Day 1, mice are anesthetized using Aerrane (isoflurane) gas (5%) or other approved methods, after which 3 mls of air is injected into the dorsal subcutaneous tissue using a 27 g needle. Mice are allowed to recover. […]
When the granuloma is removed it is weighed and then dried for 3 days at 45° C. and reweighed. […] The carmine content is then determined against a carmine red standard curve (0.5 to 2 mg/ml) generated in extracted tissue from non carmine treated animals and read at 490 nm. Sample and standard values are determined typically using DeltaSoft Elisa analysis software (Biometallics Inc., Princeton, N.J.). […]
The effect of compounds on vascular density was typically measured for 6 days after induction of the granuloma. This time point has been determined to be at or near the peak of angiogenesis. […] Medroxyprogesterone had no effect on granuloma size as measured by dry weight.

Molecule | IC50 (activated tie 2 kinase) | IC50 (Tie2 kinase) | maximum reduction (vascular density) ([1]; measured 6 days after induction of the granuloma) | effect on granuloma size as measured by dry weight ([1]; murine air pouch granuloma)
COc1ccc2cc(-c3nc(C(C)(C)CNC(=O)OC(C)(C)C)[nH]c3-c3ccncc3)ccc2c1 [Example 1, (2-(4-(6-methoxynapthalen-2-yl)-5-pyridin-4-yl-1H-imidazol-2-yl)-2-methyl-propyl)-carbamic acid tert-butyl ester] | < 1000 nM | < 1000 nM |  | 
medroxyprogesterone |  |  | 50% | no effect
